Assay results as given in ChEMBL document CHEMBL6177961, “Structure-Based Analysis of Semisynthetic Anti-TB Rufomycin Analogues” (J Nat Prod, 2025).
In brackets after ≈: the same amount, converted by molar mass.

How the values were obtained:
[1] = Binding affinity to N-terminal Mycobacterium tuberculosis ClpC1 assessed as dissociation constant by SPR analysis
[2] = system: Mycobacterium avium; assay: Antimycobacterial activity against Mycobacterium avium assessed as reduction in bacterial growth; type: functional
[3] = Binding affinity to full length Mycobacterium tuberculosis ClpC1 assessed as dissociation constant by SPR analysis
[4] = system: Mycobacteroides abscessus; assay: Antimycobacterial activity against Mycobacterium abscessus ATCC 19977 assessed as reduction in bacterial growth by microplate Alamar blue assay; type: functional
[5] = system: Mycobacterium tuberculosis; assay: Antimycobacterial activity against Mycobacterium tuberculosis H37Rv ATCC 27294 assessed as reduction in bacterial growth by microplate alamar blue assay; type: functional
[6] = Selectivity index, ratio of IC50 for cytotoxicity against African green monkey Vero cells to MIC for antimycobacterial activity against Mycobacterium tuberculosis H37Rv ATCC 27294; type: toxicity, cell-based; conditions: read-out: Selectivity Index
[7] = Cytotoxicity against African green monkey Vero cells; type: toxicity, cell-based; conditions: African green monkey (Chlorocebus sabaeus)

SMILES | Kd [1] [nM] | MIC [2] [µM] | Kd [3] [nM] | MIC [4] [µM] | MIC [5] [µM] | selectivity ratio [6] | IC50 [7] [nM]
C/C=C/C[C@@H]1NC(=O)[C@H](CC(C)C)N2C=C(C)C[C@@H](C2=O)N(C)C(=O)[C@H](C)NC(=O)[C@H](Cc2ccc(O)c(NC(=O)CCl)c2)NC(=O)[C@H](CC(C)C)N(C)C(=O)[C@H](Cc2cn(C(C)(C)[C@H](O)CCl)c3ccccc23)NC1=O | 220 | > 10 | 310 | 2.2 (≈ 2.44 µg/mL) | 0.098 (≈ 0.109 µg/mL) | > 1000 | > 100000
C/C=C/C[C@@H]1NC(=O)[C@H](CC(C)C)N2C=C(C)C[C@@H](C2=O)N(C)C(=O)[C@H](C)NC(=O)[C@H](Cc2ccc(OC)c([N+](=O)[O-])c2)NC(=O)[C@H](CC(C)C)N(C)C(=O)[C@H](Cc2cn(C(C)(C)[C@H]3CO3)c3ccccc23)NC1=O | – | > 10 | – | 2.3 (≈ 2.39 µg/mL) | 0.073 (≈ 0.0758 µg/mL) | 1300 | 98000
C/C=C/C[C@@H]1NC(=O)[C@H](CC(C)C)N2C=C(C)C[C@@H](C2=O)N(C)C(=O)[C@H](C)NC(=O)[C@H](Cc2ccc(O)c([N+](=O)[O-])c2)NC(=O)[C@H](CC(C)C)N(C)C(=O)[C@H](Cc2cn(C(C)(C)[C@H](O)CCl)c3ccccc23)NC1=O | – | 4.8 (≈ 5.09 µg/mL) | – | 1.1 (≈ 1.17 µg/mL) | 0.019 (≈ 0.0202 µg/mL) | – | > 100000
C/C=C/C[C@@H]1NC(=O)[C@H](CC(C)C)N2C=C(C)C[C@@H](C2=O)N(C)C(=O)[C@H](C)NC(=O)[C@H](Cc2ccc3ocnc3c2)NC(=O)[C@H](CC(C)C)N(C)C(=O)[C@H](Cc2cn(C(C)(C)[C@H](O)CCl)c3ccccc23)NC1=O | 300 | > 10 | 430 | 2.4 (≈ 2.5 µg/mL) | 0.12 (≈ 0.125 µg/mL) | > 830 | > 100000
C/C=C/C[C@@H]1NC(=O)[C@H](CC(C)C)N2C=C(C)C[C@@H](C2=O)N(C)C(=O)[C@H](C)NC(=O)[C@H](Cc2ccc(OC(C)=O)c([N+](=O)[O-])c2)NC(=O)[C@H](CC(C)C)N(C)C(=O)[C@H](Cc2cn(C(C)(C)[C@H](O)CCl)c3ccccc23)NC1=O | – | 5.8 (≈ 6.4 µg/mL) | – | 1.1 (≈ 1.21 µg/mL) | 0.022 (≈ 0.0243 µg/mL) | > 4500 | > 100000
C/C=C/C[C@@H]1NC(=O)[C@H](CC(C)C)N2C=C(C)C[C@@H](C2=O)N(C)C(=O)[C@H](C)NC(=O)[C@H](Cc2ccc(O)c(N)c2)NC(=O)[C@H](CC(C)C)N(C)C(=O)[C@H](Cc2cn(C(C)(C)[C@H](O)CCl)c3ccccc23)NC1=O | – | > 10 | – | 8.3 (≈ 8.55 µg/mL) | 0.89 (≈ 0.917 µg/mL) | > 110 | > 100000
C/C=C/C[C@@H]1NC(=O)[C@H](CC(C)C)N2C=C(C)C[C@@H](C2=O)N(C)C(=O)[C@H](C)NC(=O)[C@H](Cc2ccc(O)c([N+](=O)[O-])c2)NC(=O)[C@H](CC(C)C)N(C)C(=O)[C@H](Cc2cn(C(C)(C)[C@H](O)CBr)c3ccccc23)NC1=O | 260 | 1.1 (≈ 1.22 µg/mL) | 350 | 0.57 (≈ 0.63 µg/mL) | 0.003 (≈ 0.00332 µg/mL) | > 32000 | > 100000
C/C=C/C[C@@H]1NC(=O)[C@H](CC(C)C)N2C(=O)[C@H](CC(C)[C@H]2OC)N(C)C(=O)[C@H](C)NC(=O)[C@H](Cc2ccc(O)c([N+](=O)[O-])c2)NC(=O)[C@H](CC(C)C)N(C)C(=O)[C@H](Cc2cn(C(C)(C)[C@H]3CO3)c3ccccc23)NC1=O (some centres not stated) | – | 1.4 (≈ 1.48 µg/mL) | – | 0.15 (≈ 0.158 µg/mL) | 0.002 (≈ 0.00211 µg/mL) | > 53000 | > 100000
C/C=C/C[C@@H]1NC(=O)[C@H](CC(C)C)N2C(=O)[C@H](C[C@H](C)[C@@H]2OCCCC)N(C)C(=O)[C@H](C)NC(=O)[C@H](Cc2ccc(O)c([N+](=O)[O-])c2)NC(=O)[C@H](CC(C)C)N(C)C(=O)[C@H](Cc2cn(C(C)(C)[C@H](O)CCl)c3ccccc23)NC1=O | 27 | – | 29 | 4.2 (≈ 4.77 µg/mL) | 0.048 (≈ 0.0545 µg/mL) | > 2100 | > 100000
C/C=C/C[C@@H]1NC(=O)[C@H](CC(C)C)N2C(=O)[C@H](C[C@H](C)[C@H]2OCC)N(C)C(=O)[C@H](C)NC(=O)[C@H](Cc2ccc(O)c([N+](=O)[O-])c2)NC(=O)[C@H](CC(C)C)N(C)C(=O)[C@H](Cc2cn(C(C)(C)[C@H](O)CCl)c3ccccc23)NC1=O | 11 | 2.2 (≈ 2.43 µg/mL) | 87 | 0.49 (≈ 0.542 µg/mL) | 0.005 (≈ 0.00553 µg/mL) | > 19000 | > 100000
C/C=C/C[C@@H]1NC(=O)[C@H](CC(C)C)N2C(=O)[C@H](CC(C)[C@H]2OC)N(C)C(=O)[C@H](C)NC(=O)[C@H](Cc2ccc(OC)c([N+](=O)[O-])c2)NC(=O)[C@H](CC(C)C)N(C)C(=O)[C@H](Cc2cn(C(C)(C)[C@H]3CO3)c3ccccc23)N(C)C1=O (some centres not stated) | – | 9 (≈ 9.76 µg/mL) | – | 2.1 (≈ 2.28 µg/mL) | 0.065 (≈ 0.0705 µg/mL) | 1400 | 90000
C/C=C/C[C@@H]1NC(=O)[C@H](CC(C)C)N2C(=O)[C@H](CC(C)[C@H]2OC)N(C)C(=O)[C@H](C)NC(=O)[C@H](Cc2ccc(O)c([N+](=O)[O-])c2)NC(=O)[C@H](CC(C)C)N(C)C(=O)[C@H](Cc2cn(C(C)(C)[C@H](O)CCl)c3ccccc23)NC1=O (some centres not stated) | 66 | 0.4 (≈ 0.437 µg/mL) | 96 | 0.25 (≈ 0.273 µg/mL) | 0.005 (≈ 0.00546 µg/mL) | > 20000 | > 100000
C/C=C/C[C@@H]1NC(=O)[C@H](CC(C)C)N2C(=O)[C@H](CC(C)[C@H]2OC)N(C)C(=O)[C@H](C)NC(=O)[C@H](Cc2ccc(OC(C)=O)c([N+](=O)[O-])c2)NC(=O)[C@H](CC(C)C)N(C)C(=O)[C@H](Cc2cn(C(C)(C)[C@H](O)CCl)c3ccccc23)NC1=O (some centres not stated) | 38 | 0.21 (≈ 0.238 µg/mL) | 42 | 0.21 (≈ 0.238 µg/mL) | 0.005 (≈ 0.00567 µg/mL) | > 20000 | > 100000
C/C=C/C[C@@H]1NC(=O)[C@H](CC(C)C)N2C(=O)[C@H](C[C@@H](C)[C@H]2OCCCC)N(C)C(=O)[C@H](C)NC(=O)[C@H](Cc2ccc(O)c([N+](=O)[O-])c2)NC(=O)[C@H](CC(C)C)N(C)C(=O)[C@H](Cc2cn(C(C)(C)[C@H](O)CCl)c3ccccc23)NC1=O | 210 | – | 170 | > 10 | 4.3 (≈ 4.88 µg/mL) | – | > 100000
C/C=C/C[C@@H]1NC(=O)[C@H](CC(C)C)N2C=C(C)C[C@@H](C2=O)N(C)C(=O)[C@H](C)NC(=O)[C@H](Cc2ccc(OC(=O)c3ccccc3)c([N+](=O)[O-])c2)NC(=O)[C@H](CC(C)C)N(C)C(=O)[C@H](Cc2cn(C(C)(C)[C@H](O)CCl)c3ccccc23)NC1=O | – | > 10 | – | 2 (≈ 2.33 µg/mL) | 0.052 (≈ 0.0606 µg/mL) | > 1900 | > 100000
C/C=C/C[C@@H]1NC(=O)[C@H](CC(C)C)N2C(=O)[C@H](CC(C)[C@H]2OCCC)N(C)C(=O)[C@H](C)NC(=O)[C@H](Cc2ccc(O)c([N+](=O)[O-])c2)NC(=O)[C@H](CC(C)C)N(C)C(=O)[C@H](Cc2cn(C(C)(C)[C@H](O)CCl)c3ccccc23)NC1=O (some centres not stated) | – | > 10 | – | 2.1 (≈ 2.35 µg/mL) | 0.75 (≈ 0.841 µg/mL) | > 13 | > 10000
C/C=C/C[C@@H]1NC(=O)[C@H](CC(C)C)N2C(=O)[C@H](CC(C)[C@H]2OC(C)=O)N(C)C(=O)[C@H](C)NC(=O)[C@H](Cc2ccc(OC(C)=O)c([N+](=O)[O-])c2)NC(=O)[C@H](CC(C)C)N(C)C(=O)[C@H](Cc2cn(C(C)(C)[C@H]3CO3)c3ccccc23)NC1=O (some centres not stated) | – | 0.96 (≈ 1.08 µg/mL) | 16 | 0.27 (≈ 0.304 µg/mL) | 0.004 (≈ 0.00451 µg/mL) | > 23000 | > 100000
C/C=C/C[C@@H]1NC(=O)[C@H](CC(C)C)N2C=C(C)C[C@@H](C2=O)N(C)C(=O)[C@H](C)NC(=O)[C@H](Cc2ccc(OC(=O)c3ccccc3)c([N+](=O)[O-])c2)NC(=O)[C@H](CC(C)C)N(C)C(=O)[C@H](Cc2cn(C(C)(C)[C@@H](CCl)OC(=O)c3ccccc3)c3ccccc23)NC1=O | 1400 | > 10 | 1100 | > 10 | 0.45 (≈ 0.571 µg/mL) | > 220 | > 100000
C/C=C/C[C@@H]1NC(=O)[C@H](CC(C)C)N2C(=O)[C@H](CC(C)[C@H]2O)N(C)C(=O)[C@H](C)NC(=O)[C@H](Cc2ccc(OC(C)=O)c([N+](=O)[O-])c2)NC(=O)[C@H](CC(C)C)N(C)C(=O)[C@H](Cc2cn(C(C)(C)[C@H]3CO3)c3ccccc23)NC1=O (mixture of isomers) | – | – | – | – | – | 11000 | –
C/C=C/C[C@@H]1NC(=O)[C@H](CC(C)C)N2C(=O)[C@H](CC(C)[C@H]2OC)N(C)C(=O)[C@H](C)NC(=O)[C@H](Cc2ccc(OC)c([N+](=O)[O-])c2)NC(=O)[C@H](CC(C)C)N(C)C(=O)[C@H](Cc2cn(C(C)(C)[C@H]3CO3)c3ccccc23)NC1=O (some centres not stated) | – | 1.2 (≈ 1.28 µg/mL) | 64 | 0.53 (≈ 0.567 µg/mL) | 0.006 (≈ 0.00642 µg/mL) | 17000 | 100000
C/C=C/C[C@@H]1NC(=O)[C@H](CC(C)C)N2C=C(C)C[C@@H](C2=O)N(C)C(=O)[C@H](C)NC(=O)[C@H](Cc2ccc3c(c2)N=C(C)CC(C)(C)O3)NC(=O)[C@H](CC(C)C)N(C)C(=O)[C@H](Cc2cn(C(C)(C)[C@H](O)CCl)c3ccccc23)NC1=O | – | > 10 | – | 4.5 (≈ 5 µg/mL) | 0.79 (≈ 0.878 µg/mL) | > 130 | > 100000
C/C=C/C[C@@H]1NC(=O)[C@H](CC(C)C)N2C(=O)[C@H](CC(C)[C@H]2O)N(C)C(=O)[C@H](C)NC(=O)[C@H](Cc2ccc(O)c([N+](=O)[O-])c2)NC(=O)[C@H](CC(C)C)N(C)C(=O)[C@H](Cc2cn(C(C)(C)[C@H]3CO3)c3ccccc23)NC1=O (mixture of isomers) | 83 | 1.2 | 110 | 0.29 | 0.019 | – | –
NNC(=O)c1ccncc1 [ISONIAZID] | – | – | – | > 8 | 0.46 (≈ 0.0631 µg/mL) | – | –
CO[C@H]1/C=C/O[C@@]2(C)Oc3c(C)c(O)c4c(O)c(c(/C=N/N5CCN(C)CC5)c(O)c4c3C2=O)NC(=O)/C(C)=C\C=C\[C@H](C)[C@H](O)[C@@H](C)[C@@H](O)[C@@H](C)[C@H](OC(C)=O)[C@@H]1C [RIFAMPIN] | – | – | – | > 4 | 0.03 (≈ 0.0247 µg/mL) | – | > 122000
